Results from patent US9440952B2, “Compounds inhibiting leucine-rich repeat kinase enzyme activity” (Merck Sharp & Dohme Corp., priority 2013, dated 2016).

Key:
Type in all cases: biochemical
[1] = target: T1, LRRK2(G2019S mutation, GST-LRRK2(amino acids 970-2527)) (Homo sapiens, UniProt Q5S007, G2019S); test: LRRK2 5 mM ATP LanthaScreen Assay; settings: mean IC50 of several tests
T1 construct: GST-LRRK2(amino acids 970-2527); GST (N); purchased Life Technologies Corporation
Method: The data presented for the 5 mM and Km ATP LanthaScreen™ Assay represents mean IC50 values based on several test results and may have reasonable. deviations depending on the specific conditions and reagents used. Reagents for the LRRK2 5 mM and Km ATP LanthaScreen™ Assay were purchased from Life Technologies Corporation.
LRRK2 5 mM ATP LanthaScreen™ Assay • a) 400 nl of a 1:2.15 serial dilution of test compound (98 μM top assay concentration) is spotted via Labcyte Echo to certain wells in a 384 well black, untreated plate. […] Results are analysed using Assay Data Analyzer.

[2] = target: T1, LRRK2(G2019S mutation, GST-LRRK2(amino acids 970-2527)); test: LRRK2 Km ATP LanthaScreen Assay
How it was run: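 IC50 values are means of several runs in the Km-ATP LanthaScreen format, analysed by curve fitting of the LanthaScreen read-out.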

kinases (Table B) [3] = test: Kinase selectivity, Z'-LYTE or Adapta assay platforms (Life Technologies); settings: test conc 0.100 μM
kinases (Table B) [4] = target: T2, kinases (Table B) (Homo sapiens, UniProt Q13627); test: as above; settings: DYRK1A; Z-LYTE; test conc 0.100 μM; read-out: percent inhibition DYRK1A
T2 construct: purchased Life Technologies Corporation

kinases (Table B) [5] = target: T3, kinases (Table B) (Homo sapiens, UniProt Q96GD4); test: as above; settings: AURKB (Aurora B); Z-LYTE; test conc 0.100 μM; read-out: percent inhibition AURKB (Aurora B)
T3 construct: purchased Life Technologies Corporation

kinases (Table B) [6] = target: T4, kinases (Table B) (Homo sapiens, UniProt P28482); test: as above; settings: MAPK1 (ERK2); Z-LYTE; test conc 0.100 μM; read-out: percent inhibition MAPK1 (ERK2)
T4 construct: purchased Life Technologies Corporation

[7] = Km ATP LanthaScreen, mean IC50 of several tests, read-out: LRRK2 IC50
[8] = Km ATP LanthaScreen Assay, LRRK2 G2019S, mean IC50 values, read-out: LRRK2 IC50
[9] = Km ATP LanthaScreen Assay; LRRK2 G2019S; mean IC50 values; Examples 185-215; read-out: LRRK2 IC5)

T1 sequence (Q5S007 970-2527 G2019S): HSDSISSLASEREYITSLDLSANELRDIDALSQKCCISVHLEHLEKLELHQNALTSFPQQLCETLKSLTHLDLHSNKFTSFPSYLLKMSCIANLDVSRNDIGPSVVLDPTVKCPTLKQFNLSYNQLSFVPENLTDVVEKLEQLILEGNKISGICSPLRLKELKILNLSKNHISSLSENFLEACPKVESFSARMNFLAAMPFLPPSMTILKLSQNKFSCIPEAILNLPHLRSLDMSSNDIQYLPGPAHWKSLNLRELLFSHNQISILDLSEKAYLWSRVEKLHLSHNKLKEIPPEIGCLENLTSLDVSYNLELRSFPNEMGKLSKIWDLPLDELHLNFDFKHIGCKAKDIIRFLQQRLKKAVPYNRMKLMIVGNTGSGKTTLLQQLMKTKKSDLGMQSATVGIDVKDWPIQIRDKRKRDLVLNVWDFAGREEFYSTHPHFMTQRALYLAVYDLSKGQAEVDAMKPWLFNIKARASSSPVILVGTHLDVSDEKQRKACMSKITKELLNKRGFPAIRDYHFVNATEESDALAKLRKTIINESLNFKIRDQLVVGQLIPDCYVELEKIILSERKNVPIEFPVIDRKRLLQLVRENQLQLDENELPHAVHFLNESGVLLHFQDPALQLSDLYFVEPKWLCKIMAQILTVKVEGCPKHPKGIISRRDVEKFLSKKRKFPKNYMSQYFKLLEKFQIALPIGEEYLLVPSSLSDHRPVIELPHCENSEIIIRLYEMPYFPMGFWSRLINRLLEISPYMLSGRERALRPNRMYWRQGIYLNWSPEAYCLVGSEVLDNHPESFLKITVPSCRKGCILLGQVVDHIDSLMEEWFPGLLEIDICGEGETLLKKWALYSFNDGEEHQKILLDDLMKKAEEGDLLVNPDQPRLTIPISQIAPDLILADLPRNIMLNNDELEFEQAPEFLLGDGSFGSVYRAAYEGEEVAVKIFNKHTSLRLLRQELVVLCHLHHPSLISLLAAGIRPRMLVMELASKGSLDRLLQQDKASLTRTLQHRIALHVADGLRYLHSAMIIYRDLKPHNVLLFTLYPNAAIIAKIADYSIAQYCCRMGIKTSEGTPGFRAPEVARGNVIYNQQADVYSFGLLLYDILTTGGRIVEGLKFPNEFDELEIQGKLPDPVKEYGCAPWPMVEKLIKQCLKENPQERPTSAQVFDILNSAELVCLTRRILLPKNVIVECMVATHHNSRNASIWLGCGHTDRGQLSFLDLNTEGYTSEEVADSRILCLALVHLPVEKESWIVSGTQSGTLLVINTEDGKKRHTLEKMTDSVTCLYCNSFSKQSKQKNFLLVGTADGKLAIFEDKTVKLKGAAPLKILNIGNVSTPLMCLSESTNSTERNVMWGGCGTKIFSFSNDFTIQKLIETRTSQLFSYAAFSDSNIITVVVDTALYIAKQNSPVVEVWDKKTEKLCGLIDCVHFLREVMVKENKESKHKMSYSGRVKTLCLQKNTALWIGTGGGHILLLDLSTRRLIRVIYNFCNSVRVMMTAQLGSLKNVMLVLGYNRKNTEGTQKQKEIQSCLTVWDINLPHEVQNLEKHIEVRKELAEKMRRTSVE
T4 sequence (P28482 whole entry): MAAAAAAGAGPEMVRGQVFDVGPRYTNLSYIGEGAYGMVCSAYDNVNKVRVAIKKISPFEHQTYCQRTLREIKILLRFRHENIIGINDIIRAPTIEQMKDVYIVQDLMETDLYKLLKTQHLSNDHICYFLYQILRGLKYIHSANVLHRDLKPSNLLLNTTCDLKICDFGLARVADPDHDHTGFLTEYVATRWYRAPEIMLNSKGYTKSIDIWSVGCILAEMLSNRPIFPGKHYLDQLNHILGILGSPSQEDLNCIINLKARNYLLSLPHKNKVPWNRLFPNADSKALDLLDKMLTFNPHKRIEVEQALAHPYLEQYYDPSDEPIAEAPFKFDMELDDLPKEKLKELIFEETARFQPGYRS
T3 sequence (Q96GD4 whole entry): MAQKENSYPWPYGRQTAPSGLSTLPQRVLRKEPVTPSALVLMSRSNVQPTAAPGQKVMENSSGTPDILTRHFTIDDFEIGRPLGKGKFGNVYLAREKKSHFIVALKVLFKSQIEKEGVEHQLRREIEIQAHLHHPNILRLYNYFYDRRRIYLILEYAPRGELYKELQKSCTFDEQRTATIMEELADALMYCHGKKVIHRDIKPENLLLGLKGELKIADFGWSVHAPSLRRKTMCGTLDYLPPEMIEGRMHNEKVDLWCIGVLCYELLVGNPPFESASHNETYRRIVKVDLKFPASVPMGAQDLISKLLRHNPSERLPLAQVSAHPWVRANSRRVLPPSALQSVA

| SMILES | IC50 [2, 7] [nM] | IC50 [2, 8] [nM] | further results |
| --- | --- | --- | --- |
| Cn1cc(-c2ccc3[nH]nc(-c4ccnc(N5CC(F)C5)c4)c3c2)cn1 [Ex 376] | < 0.6 |  | IC50 [1]: 23 nM |
| CC(C)Oc1ccc2[nH]nc(-c3ccnc(N4CCNC(=O)C4)c3)c2c1 [Example 311] | < 0.6 |  | IC50 [1]: 14 nM |
| CC(C)Oc1ccc2[nH]nc(-c3ccnc(N4CCC(O)CC4)c3)c2c1 [Example 285] | 3.8 |  | IC50 [1]: 15 nM |
| CC(C)Oc1ccc2[nH]nc(-c3ccnc(N4CCN(C)CC4)c3)c2c1 [Example 383] | 0.75 |  | IC50 [1]: 22 nM; percent inhibition CDK1/cyclin B (kinases (Table B) [3]; CDK1/cyclin B, Z-LYTE): 5%; percent inhibition CLK2 (kinases (Table B) [3]; CLK2, Z-LYTE): 26%; percent inhibition IRAK1 (kinases (Table B) [3]; IRAK1, Adapta): 2%; percent inhibition JAK3 (kinases (Table B) [3]; JAK3, Z-LYTE): 7%; inhibition at 0.1 µM (kinases (Table B) [4]): 8%; inhibition at 0.1 µM (kinases (Table B) [5]): 8%; inhibition at 0.1 µM (kinases (Table B) [6]): 10% |
| Cn1cc(-c2ccc3[nH]nc(-c4ccnc(N5CCOCC5)c4)c3c2)cn1 [Example 321] | < 0.6 |  | IC50 [1]: 12 nM |
| c1cc(-c2n[nH]c3ccc(CNCC4CC4)cc23)cc(N2CCOCC2)n1 [Example 87] | 424 |  |  |
| COC(=O)c1ccc2[nH]nc(-c3ccnc(N4CCOCC4)c3)c2c1 [Example 393] | 15 |  |  |
| FC(F)(F)Oc1ccc2[nH]nc(-c3ccnc(N4CCCCC4)c3)c2c1 [Example 232] |  | 279 |  |
| CC(C)Oc1ccc2[nH]nc(-c3ccnc(NCC4CC4)c3)c2c1 [Example 134] |  | 2 |  |
| COCCOc1ccc2[nH]nc(-c3ccnc(N4CCN(C)C(=O)C4)c3)c2c1 [Example 368] | 30 |  |  |
| c1ccc2c(-c3ccnc(N4CCOCC4)c3)n[nH]c2c1 [Example 1] | 16 |  |  |
| CC(C)Oc1ccc2[nH]nc(-c3ccnc(N4CCC(F)(F)CC4)c3)c2c1 [Example 287] | 14 |  |  |
| OCCc1cc2c(-c3ccnc(N4CCOCC4)c3)n[nH]c2cc1F [Example 349] | 27 |  |  |
| CC(C)Oc1ccc2[nH]nc(-c3ccnc(N4CC(S(C)(=O)=O)C4)c3)c2c1 [Example 184] |  | 5.4 |  |
| Cc1cc2[nH]nc(-c3ccnc(N4CCOCC4)c3)c2cc1OC(C)C [Example 397] | 167 |  |  |
| Cc1c(-c2ccc3[nH]nc(-c4ccnc(N5CCOCC5)c4)c3c2)cnn1C [Example 316] | 2.1 |  | IC50 [1]: 8 nM |
| FC1(F)CN(c2cc(-c3n[nH]c4ccc(OC(F)(F)F)cc34)ccn2)C1 [Example 247] |  | 369 |  |
| Cc1cccc(Nc2ccc3[nH]nc(-c4ccnc(N5CCOCC5)c4)c3c2)c1 [Example 114] | 28.7 |  |  |
| CC(C)Oc1ccc2[nH]nc(-c3ccnc(NC(=O)CCc4cnn(C)c4)c3)c2c1 [Example 162] |  | 27.2 |  |
| CC(C)Oc1ccc2[nH]nc(-c3ccnc(N4CCC(n5cnnc5)CC4)c3)c2c1 [Example 194] |  |  | IC50 [2, 9]: 4.4 nM |
| Cn1cc(-c2ccc3[nH]nc(-c4ccnc(N5CCOCC5)c4)c3c2)nn1 [Example 340] | 1.1 |  |  |
| CC(C)Oc1ccc2[nH]nc(-c3ccnc(NC4CC4)c3)c2c1 [Example 137] |  | 24.3 |  |

| SMILES | IC50 [2, 7] [nM] | IC50 [2, 8] [nM] | further results |
| --- | --- | --- | --- |
| c1ccc(-c2ccc3c(-c4ccnc(N5CCOCC5)c4)n[nH]c3c2)cc1 [Example 125] | 34 |  |  |
| CC(O)c1ccc2[nH]nc(-c3ccnc(N4CCOCC4)c3)c2c1 (stereo not shown) [Example 126] | 9.9 |  |  |
| c1ccc(-c2ccc3[nH]nc(-c4ccnc(N5CCOCC5)c4)c3c2)nc1 [Example 99] | 13.7 |  |  |
| Oc1ccc(-c2ccc3[nH]nc(-c4ccnc(N5CCOCC5)c4)c3c2)cn1 [Example 315] | 39 |  |  |
| COCCN(C)c1cc(-c2n[nH]c3ccccc23)ccn1 [Example 3] |  | 48 |  |
| COC1CCN(c2cc(-c3n[nH]c4ccc(-c5ccnc(O)c5)cc34)ccn2)CC1 [Example 122] |  | 1.1 |  |
| CC(C)Oc1ccc2[nH]nc(-c3ccnc(N4C5CCC4COC5)c3)c2c1 [Example 282] |  | 7.7 |  |
| COC1CN(c2cc(-c3n[nH]c4ccccc34)ccn2)C1 [Example 67] |  | 31 |  |
| CC(C)Oc1ccc2[nH]nc(-c3ccnc(N4CCN(c5ncccn5)CC4)c3)c2c1 [Example 204] |  |  | IC50 [2, 9]: 7.9 nM |
| CCCOc1ccc2[nH]nc(-c3ccnc(N4CCOCC4)c3)c2c1 [Example 301] | 12 |  |  |
| Oc1cc(-c2ccc3[nH]nc(-c4ccnc(N5CCC(O)CC5)c4)c3c2)ccn1 [Example 121] |  | 1.4 | IC50 [1]: 16 nM |
| CCOc1ccc2[nH]nc(-c3ccnc(N4CCC(n5cccn5)CC4)c3)c2c1 [Example 218] |  | 14.4 |  |
| CC(C)Oc1ccc2[nH]nc(-c3ccnc(N4CCN(c5ncc6ccccc6n5)CC4)c3)c2c1 [Example 212] |  |  | IC50 [2, 9]: 70.6 nM |
| CC(C)Oc1ccc2[nH]nc(-c3ccnc(N4CCC(n5cncn5)CC4)c3)c2c1 [Example 187] |  |  | IC50 [2, 9]: 4 nM |
| COc1ccc(-c2ccc3[nH]nc(-c4ccnc(N5CCOCC5)c4)c3c2)c(OC)n1 [Example 328] | 189 |  |  |
| c1cc(-c2n[nH]c3ccc(OCC4CC4)cc23)cc(N2CCOCC2)n1 [Example 373] | 84 |  |  |
| CC(C)CCNc1cc(-c2n[nH]c3ccc(Nc4cccc(S(C)(=O)=O)c4)cc23)ccn1 [Example 110] |  | 83 |  |
| CCOc1ccc2[nH]nc(-c3ccnc(N4CCN(S(C)(=O)=O)CC4)c3)c2c1 [Example 360] | < 0.6 |  |  |
| CC(C)Oc1ccc2[nH]nc(-c3ccnc(N4CCN(c5ccccn5)CC4)c3)c2c1 [Example 200] |  |  | IC50 [2, 9]: 10.9 nM |
| OC1(c2ccccn2)CCN(c2cc(-c3n[nH]c4ccccc34)ccn2)CC1 [Example 23] |  | 20 |  |
| CC(C)Oc1ccc2[nH]nc(-c3ccnc(N4CCN(S(C)(=O)=O)C(C)C4)c3)c2c1 (stereo not shown) [Example 385] | 2.2 |  |  |
| c1cc(-c2n[nH]c3cc4c(cc23)OCCO4)cc(N2CCOCC2)n1 [Example 394] | 12 |  |  |

| SMILES | IC50 [2, 7] [nM] | IC50 [2, 8] [nM] | further results |
| --- | --- | --- | --- |
| CC(C)Oc1ccc2[nH]nc(-c3ccnc(N4CCCC(O)C4)c3)c2c1 (stereo not shown) [Example 170] |  | 6.4 |  |
| CC(C)Oc1ccc2[nH]nc(-c3ccnc(N4CCOC4=O)c3)c2c1 [Example 303] | 16 |  |  |
| CC1=NC2(CCCN(c3cc(-c4n[nH]c5ccccc45)ccn3)C2)C(=O)N1 (stereo not shown) [Example 60] |  | 202 |  |
| C1=CC(c2noc(C3CCN(c4cc(-c5n[nH]c6ccccc56)ccn4)CC3)n2)=CCC1 [Example 20] |  | 27 |  |
| CC(C)Oc1ccc2[nH]nc(-c3ccnc(N4CCC(n5cccn5)CC4)c3)c2c1 [Example 173] |  | 4.9 |  |
| CN1CCN(c2cc(-c3n[nH]c4ccccc34)ccn2)CC1 [Example 8] |  | 42 |  |
| CO[C@H]1CN(c2cc(-c3n[nH]c4ccc(OC(C)C)cc34)ccn2)C[C@@H]1O [Example 172] |  | 27.1 |  |
| CCN(CC)CCNCc1ccc2[nH]nc(-c3ccnc(N4CCOCC4)c3)c2c1 [Example 95] |  | 273 |  |
| CN1CCC2(CCN(c3cc(-c4n[nH]c5ccccc45)ccn3)C2)C1 (stereo not shown) [Example 34] |  | 22 |  |
| CS(=O)(=O)c1cccc(Nc2ccc3[nH]nc(-c4ccnc(N5CCOCC5)c4)c3c2)c1 [Example 108] | 9.3 |  |  |
| CC(C)Oc1ccc2[nH]nc(-c3ccnc(N4CC(C(=O)O)C4)c3)c2c1 [Example 284] | 2.4 |  |  |
| CCOc1ccc2[nH]nc(-c3ccnc(N4C5CCCC4CC5)c3)c2c1 [Example 228] |  | 48.9 |  |
| COCCNc1cc(-c2n[nH]c3ccccc23)ccn1 [Example 4] |  | 46 |  |
| CCCOc1ccc2[nH]nc(-c3ccnc(N4CCN(C)C(=O)C4)c3)c2c1 [Example 293] | 15 |  |  |
| COCCNc1cc(-c2n[nH]c3ccc(OC(C)C)cc23)ccn1 [Example 292] | 5.9 |  |  |
| O=C(CN1CCN(c2cc(-c3n[nH]c4ccccc34)ccn2)CC1)N1CCOCC1 [Example 57] |  | 6.1 |  |
| CO[C@H]1CN(c2cc(-c3n[nH]c4ccc(-c5cnn(C)c5)cc34)ccn2)C[C@@H]1O [Example 269] | 4.2 |  |  |
| COCCC(=O)Nc1cc(-c2n[nH]c3ccc(OC(C)C)cc23)ccn1 [Example 150] |  | 51.7 |  |
| c1ccc2c(-c3ccnc(NC4CCCOC4)c3)n[nH]c2c1 (stereo not shown) [Example 74] |  | 57 |  |
| COc1cnc(-c2ccc3[nH]nc(-c4ccnc(N5CCOCC5)c4)c3c2)nc1 [Example 339] | 22 |  |  |
| c1ccc2c(-c3ccnc(N4CCC(N5CCCC5)CC4)c3)n[nH]c2c1 [Example 29] |  | 45 |  |
